According to ChEMBL document CHEMBL6127116, “Discovery of Potent and Selective Blockers Targeting the Epilepsy-Associated KNa1.1 Channel” (J Med Chem, 2024):

Assays:
[1] = biological target: Sodium channel protein type 5 subunit alpha (Homo sapiens, UniProt Q14524); assay: Inhibition of Nav1.5 (unknown origin) expressed in HEK293T cells at 10 uM by patch-clamp electrophysiology method; type: cell-based
[2] = Cmax in male ICR mouse at 1 mg/kg, iv administered as single dose measured upto 24 hrs by HPLC analysis; type: ADME, organism-based; settings: in vivo
[3] = Tmax in male ICR mouse at 1 mg/kg, iv administered as single dose measured upto 24 hrs by HPLC analysis; type: ADME, organism-based; settings: in vivo
[4] = Half life in male ICR mouse at 1 mg/kg, iv administered as single dose measured upto 24 hrs by HPLC analysis; type: ADME, organism-based; settings: in vivo
[5] = AUC (0 to t) in male ICR mouse at 1 mg/kg, iv administered as single dose measured upto 24 hrs by HPLC analysis; type: ADME, organism-based; settings: in vivo
[6] = Clearance in male ICR mouse at 1 mg/kg, iv administered as single dose measured upto 24 hrs by HPLC analysis; type: ADME, organism-based; settings: in vivo
[7] = MRT (0 to t) in male ICR mouse at 1 mg/kg, iv administered as single dose measured upto 24 hrs by HPLC analysis; type: ADME, organism-based; settings: in vivo
[8] = Volume of distribution at steady state in male ICR mouse at 1 mg/kg, iv administered as single dose measured upto 24 hrs by HPLC analysis; type: ADME, organism-based; settings: in vivo, read-out: Vdss
[9] = Cmax in male ICR mouse at 10 mg/kg, po administered as single dose measured upto 24 hrs by HPLC analysis; type: ADME, organism-based; settings: in vivo
[10] = Tmax in male ICR mouse at 10 mg/kg, po administered as single dose measured upto 24 hrs by HPLC analysis; type: ADME, organism-based; settings: in vivo
[11] = Half life in male ICR mouse at 10 mg/kg, po administered as single dose measured upto 24 hrs by HPLC analysis; type: ADME, organism-based; settings: in vivo
[12] = AUC (0 to t) in male ICR mouse at 10 mg/kg, po administered as single dose measured upto 24 hrs by HPLC analysis; type: ADME, organism-based; settings: in vivo
[13] = MRT (0 to t) in male ICR mouse at 10 mg/kg, po administered as single dose measured upto 24 hrs by HPLC analysis; type: ADME, organism-based; settings: in vivo
[14] = Oral bioavailability in male ICR mouse at 10 mg/kg administered as single dose measured upto 24 hrs by HPLC analysis; type: ADME, organism-based; settings: in vivo
[15] = Drug concentration in male ICR mouse brain at 1 mg/kg, iv measured after 0.5 hrs by LC-MS/MS analysis; type: ADME, organism-based; settings: read-out: Ct
[16] = Drug concentration in male ICR mouse plasma at 1 mg/kg, iv measured after 0.5 hrs by LC-MS/MS analysis; type: ADME, organism-based
[17] = Drug concentration in male ICR mouse brain at 1 mg/kg, iv measured after 2 hrs by LC-MS/MS analysis; type: ADME, organism-based; settings: read-out: Ct
[18] = Drug concentration in male ICR mouse plasma at 1 mg/kg, iv measured after 2 hrs by LC-MS/MS analysis; type: ADME, organism-based
[19] = Drug concentration in male ICR mouse brain at 10 mg/kg, po measured after 0.5 hrs by LC-MS/MS analysis; type: ADME, organism-based; settings: read-out: Ct
[20] = Drug concentration in male ICR mouse plasma at 10 mg/kg, po measured after 0.5 hrs by LC-MS/MS analysis; type: ADME, organism-based
[21] = Drug concentration in male ICR mouse brain at 10 mg/kg, po measured after 2 hrs by LC-MS/MS analysis; type: ADME, organism-based; settings: read-out: Ct
[22] = Drug concentration in male ICR mouse plasma at 10 mg/kg, po measured after 2 hrs by LC-MS/MS analysis; type: ADME, organism-based
[23] = biological target: Voltage-gated inwardly rectifying potassium channel KCNH2 (Homo sapiens, UniProt Q12809); assay: Inhibition of human ERG expressed in Xenopus laevis oocytes by two-electrode voltage clamp method; type: toxicity, cell-based, Oocyte
Voltage-gated inwardly rectifying potassium channel KCNH2, sequence (Q12809 whole entry): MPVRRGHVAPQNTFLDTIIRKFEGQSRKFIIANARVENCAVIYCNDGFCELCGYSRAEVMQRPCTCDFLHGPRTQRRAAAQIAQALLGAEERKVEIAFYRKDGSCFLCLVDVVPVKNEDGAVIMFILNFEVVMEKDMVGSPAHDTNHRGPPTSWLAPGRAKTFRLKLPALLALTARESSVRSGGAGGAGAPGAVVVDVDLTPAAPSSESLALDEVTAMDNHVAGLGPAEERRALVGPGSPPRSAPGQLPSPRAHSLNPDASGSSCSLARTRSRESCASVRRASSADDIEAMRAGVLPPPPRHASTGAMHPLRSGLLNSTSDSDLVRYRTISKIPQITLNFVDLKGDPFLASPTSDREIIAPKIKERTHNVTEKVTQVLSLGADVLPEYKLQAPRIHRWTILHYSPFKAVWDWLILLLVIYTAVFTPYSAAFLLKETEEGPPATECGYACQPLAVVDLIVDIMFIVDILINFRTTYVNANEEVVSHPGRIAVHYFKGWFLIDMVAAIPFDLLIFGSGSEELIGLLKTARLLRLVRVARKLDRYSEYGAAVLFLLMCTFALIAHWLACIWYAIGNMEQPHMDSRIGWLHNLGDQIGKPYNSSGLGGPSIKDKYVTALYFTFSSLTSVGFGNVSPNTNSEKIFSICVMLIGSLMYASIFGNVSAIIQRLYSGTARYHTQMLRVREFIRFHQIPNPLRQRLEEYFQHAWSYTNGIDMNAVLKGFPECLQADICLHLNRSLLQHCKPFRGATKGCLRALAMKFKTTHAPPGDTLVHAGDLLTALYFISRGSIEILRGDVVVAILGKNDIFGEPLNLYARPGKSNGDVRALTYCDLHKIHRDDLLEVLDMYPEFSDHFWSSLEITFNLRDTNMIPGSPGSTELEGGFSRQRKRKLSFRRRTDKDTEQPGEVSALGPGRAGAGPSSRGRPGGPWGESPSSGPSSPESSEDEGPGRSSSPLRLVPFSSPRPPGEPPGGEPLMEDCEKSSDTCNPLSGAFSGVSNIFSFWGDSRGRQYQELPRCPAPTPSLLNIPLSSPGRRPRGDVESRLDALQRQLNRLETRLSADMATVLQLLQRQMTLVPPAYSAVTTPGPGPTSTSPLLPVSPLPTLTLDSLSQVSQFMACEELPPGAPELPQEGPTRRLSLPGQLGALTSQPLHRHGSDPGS

Sodium channel protein type 5 subunit alpha, sequence (Q14524 whole entry): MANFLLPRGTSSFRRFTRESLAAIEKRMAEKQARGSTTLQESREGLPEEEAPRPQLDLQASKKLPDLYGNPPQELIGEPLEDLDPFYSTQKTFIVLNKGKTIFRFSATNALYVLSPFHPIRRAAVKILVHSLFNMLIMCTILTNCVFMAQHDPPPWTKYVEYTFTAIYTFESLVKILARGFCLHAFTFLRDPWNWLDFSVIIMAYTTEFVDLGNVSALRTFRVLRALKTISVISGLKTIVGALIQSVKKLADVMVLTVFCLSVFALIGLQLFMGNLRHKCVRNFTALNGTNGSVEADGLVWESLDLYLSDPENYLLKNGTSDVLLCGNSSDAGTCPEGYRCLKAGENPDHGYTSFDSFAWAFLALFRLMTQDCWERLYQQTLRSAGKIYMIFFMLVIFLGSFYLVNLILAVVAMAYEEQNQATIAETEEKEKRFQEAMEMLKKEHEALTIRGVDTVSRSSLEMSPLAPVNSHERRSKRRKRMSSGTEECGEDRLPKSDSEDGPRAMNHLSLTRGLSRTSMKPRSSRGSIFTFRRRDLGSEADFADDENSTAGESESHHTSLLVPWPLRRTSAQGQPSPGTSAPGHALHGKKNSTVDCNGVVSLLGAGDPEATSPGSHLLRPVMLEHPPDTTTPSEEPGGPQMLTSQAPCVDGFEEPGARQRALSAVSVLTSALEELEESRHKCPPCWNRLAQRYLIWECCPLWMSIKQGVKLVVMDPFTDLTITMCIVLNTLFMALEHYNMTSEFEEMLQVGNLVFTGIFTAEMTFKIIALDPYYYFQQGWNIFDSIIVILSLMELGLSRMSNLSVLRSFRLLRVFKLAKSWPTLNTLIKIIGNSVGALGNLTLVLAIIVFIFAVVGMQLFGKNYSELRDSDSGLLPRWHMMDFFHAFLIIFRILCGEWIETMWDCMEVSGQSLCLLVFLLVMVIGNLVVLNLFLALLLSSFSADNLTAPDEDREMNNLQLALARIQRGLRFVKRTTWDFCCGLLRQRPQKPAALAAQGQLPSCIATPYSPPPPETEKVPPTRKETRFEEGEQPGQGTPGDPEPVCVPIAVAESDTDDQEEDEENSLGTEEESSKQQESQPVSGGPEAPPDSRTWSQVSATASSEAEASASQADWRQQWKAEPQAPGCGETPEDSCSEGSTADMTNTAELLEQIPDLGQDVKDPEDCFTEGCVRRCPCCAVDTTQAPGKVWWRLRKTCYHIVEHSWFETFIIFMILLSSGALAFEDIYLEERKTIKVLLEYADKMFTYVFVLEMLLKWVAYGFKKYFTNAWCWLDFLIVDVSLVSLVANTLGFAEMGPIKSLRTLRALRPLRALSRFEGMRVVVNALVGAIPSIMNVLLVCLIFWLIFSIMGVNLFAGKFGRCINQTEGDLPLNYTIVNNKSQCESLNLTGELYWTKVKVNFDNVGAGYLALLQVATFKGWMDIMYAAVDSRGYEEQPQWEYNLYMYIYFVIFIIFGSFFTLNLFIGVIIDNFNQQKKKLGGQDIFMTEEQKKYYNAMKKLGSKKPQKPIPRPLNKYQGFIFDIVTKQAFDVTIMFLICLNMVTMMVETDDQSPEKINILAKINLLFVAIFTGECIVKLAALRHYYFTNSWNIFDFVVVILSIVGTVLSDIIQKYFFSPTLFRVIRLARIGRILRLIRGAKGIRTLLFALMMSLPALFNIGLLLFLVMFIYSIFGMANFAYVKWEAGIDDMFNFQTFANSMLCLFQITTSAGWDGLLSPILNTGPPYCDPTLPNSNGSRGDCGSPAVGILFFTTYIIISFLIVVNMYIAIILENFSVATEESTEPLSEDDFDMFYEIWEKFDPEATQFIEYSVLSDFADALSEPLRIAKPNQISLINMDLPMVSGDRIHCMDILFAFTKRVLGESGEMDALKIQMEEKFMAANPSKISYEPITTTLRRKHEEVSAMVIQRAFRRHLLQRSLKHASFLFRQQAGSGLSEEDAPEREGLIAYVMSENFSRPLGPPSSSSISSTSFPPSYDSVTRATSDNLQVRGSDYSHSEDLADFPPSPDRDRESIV

CN(C)CCCCNCc1c(OCc2ccc(F)cc2)ccc2ccccc12
inhibition (INH) [1]: Not Active

CN1CCC(NCc2c(OCc3ccc(Br)cc3)ccc3ccccc23)CC1
Cmax [2]: 25.4 ng/mL | Tmax [3]: 4.8 min | half-life [4]: 3.57 h | AUC(0-t) at 24 h [5]: 62 ng·h/mL | clearance [6]: 249 mL/min/kg | MRT last at 24 h [7]: 7.21 h | Vd [8]: 132 L/kg | Cmax [9]: 43.8 ng/mL | Tmax [10]: 0.17 h | half-life [11]: 7.23 h | AUC(0-t) at 24 h [12]: 110 ng·h/mL | MRT last at 24 h [13]: 5.37 h | bioavailability [14]: 17.8% | concentration at 0.5 h [15]: 960 ng/mL | concentration at 0.5 h [16]: 12.8 ng/mL | concentration at 2 h [17]: 702 ng/mL | concentration at 2 h [18]: 4.16 ng/mL | concentration at 0.5 h [19]: 102 ng/mL | concentration at 0.5 h [20]: 32.4 ng/mL | concentration at 2 h [21]: 158 ng/mL | concentration at 2 h [22]: 9.16 ng/mL | IC50 [23]: 14.9 µM
